From patent US20240043404A1 (AbbVie Inc., priority 2009, published 2024)
pEC50: −log10 of the molar value.

Test system: RS4;11 cells
Assay: RS4;11 cell viability assay (CellTiter Glo);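 note: acute lymphoblastic leukemia line RS4,11, EC50 derived from percentage of viable cells after treatment relative to untreated controls, cell killing taken as a measure of Bcl-2 inhibition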
Assay type: cell-based, human
Settings: Homo sapiens, RS4-11, 48 h, 50,000 cells per well, 10% human serum, 48 hours; read-out: RS4; 11 EC50 Values
Method: The acute lymphoblastic leukemia (ALL) cell line RS4;11 was used as the primary human cell line to assess the cellular activity of Bcl-2 selective agents in vitro and their efficacy in vivo.
Cell cytotoxicity EC50 values were assessed using CellTiter Glo (Promega) according to the manufacturer's recommendations. The EC50 values were determined as a percentage of viable cells following treatment compared to the untreated control cells.

SMILES | pEC50
CC1(C)CCC(CN2CCN(c3ccc(C(=O)NS(=O)(=O)c4cnc(NC5CCN(C6CC6)CC5)c(Cl)c4)c(Oc4cnc5[nH]ccc5c4)c3)CC2)=C(c2ccc(Cl)cc2)C1 [Example 243, N-({5-chloro-6-[(1-cyclopropylpiperidin-4-yl)amino]pyridin-3-yl}sulfonyl)-4-(4-{[2-(4-chlorophenyl)-4,4-dimethylcyclohex-1-en-1-yl]methyl}piperazin-1-yl)-2-(1H-pyrrolo[2,3-b]pyridin-5-yloxy)benzamide] | 6.09
CC1(C)CCC(CN2CCN(c3ccc(C(=O)NS(=O)(=O)c4cnc(OC[C@@H]5CN(CC#N)CCO5)c(Cl)c4)c(Oc4cnc5[nH]ccc5c4)c3)CC2)=C(c2ccc(Cl)cc2)C1 [Example 244, N-[(5-chloro-6-{[(2S)-4-(cyanomethyl)morpholin-2-yl]methoxy}pyridin-3-yl)sulfonyl]-4-(4-{[2-(4-chlorophenyl)-4,4-dimethylcyclohex-1-en-1-yl]methyl}piperazin-1-yl)-2-(1H-pyrrolo[2,3-b]pyridin-5-yloxy)benzamide] | 6.10
CN(C)CC(=O)N1CCO[C@H](COc2ncc(S(=O)(=O)NC(=O)c3ccc(N4CCN(CC5=C(c6ccc(Cl)cc6)CC(C)(C)CC5)CC4)cc3Oc3cnc4[nH]ccc4c3)cc2Cl)C1 [Example 245, N-[(5-chloro-6-{[(2S)-4-(N,N-dimethylglycyl)morpholin-2-yl]methoxy}pyridin-3-yl)sulfonyl]-4-(4-{[2-(4-chlorophenyl)-4,4-dimethylcyclohex-1-en-1-yl]methyl}piperazin-1-yl)-2-(1H-pyrrolo[2,3-b]pyridin-5-yloxy)benzamide] | 7.08
CC1(C)CCC(CN2CCN(c3ccc(C(=O)NS(=O)(=O)c4cnc(OC[C@H]5CN(CC#N)CCO5)c(Cl)c4)c(Oc4cnc5[nH]ccc5c4)c3)CC2)=C(c2ccc(Cl)cc2)C1 [Example 246, N-[(5-chloro-6-{[(2R)-4-(cyanomethyl)morpholin-2-yl]methoxy}pyridin-3-yl)sulfonyl]-4-(4-{[2-(4-chlorophenyl)-4,4-dimethylcyclohex-1-en-1-yl]methyl}piperazin-1-yl)-2-(1H-pyrrolo[2,3-b]pyridin-5-yloxy)benzamide] | 6.40
CN(C)CC(=O)N1CCO[C@@H](COc2ncc(S(=O)(=O)NC(=O)c3ccc(N4CCN(CC5=C(c6ccc(Cl)cc6)CC(C)(C)CC5)CC4)cc3Oc3cnc4[nH]ccc4c3)cc2Cl)C1 [Example 247, N-[(5-chloro-6-{[(2R)-4-(N,N-dimethylglycyl)morpholin-2-yl]methoxy}pyridin-3-yl)sulfonyl]-4-(4-{[2-(4-chlorophenyl)-4,4-dimethylcyclohex-1-en-1-yl]methyl}piperazin-1-yl)-2-(1H-pyrrolo[2,3-b]pyridin-5-yloxy)benzamide] | 7.03
CC1(C)CCC(CN2CCN(c3ccc(C(=O)NS(=O)(=O)c4cnc(OCC(C)(CO)CO)c(Cl)c4)c(Oc4cnc5[nH]ccc5c4)c3)CC2)=C(c2ccc(Cl)cc2)C1 [Example 250, N-({5-chloro-6-[3-hydroxy-2-(hydroxymethyl)-2-methylpropoxy]pyridin-3-yl}sulfonyl)-4-(4-{[2-(4-chlorophenyl)-4,4-dimethylcyclohex-1-en-1-yl]methyl}piperazin-1-yl)-2-(1H-pyrrolo[2,3-b]pyridin-5-yloxy)benzamide] | < 6.00

Second part, the molecule after the results:

pEC50 | SMILES
7.27 | CC1(C)CCC(CN2CCN(c3ccc(C(=O)NS(=O)(=O)c4ccc(NN5CCN(C6CCOCC6)CC5)c([N+](=O)[O-])c4)c(Oc4cnc5[nH]ccc5c4)c3)CC2)=C(c2ccc(Cl)cc2)C1 [Example 237, 4-(4-{[2-(4-chlorophenyl)-4,4-dimethylcyclohex-1-en-1-yl]methyl}piperazin-1-yl)-N-[(3-nitro-4-{[4-(tetrahydro-2H-pyran-4-yl)piperazin-1-yl]amino}phenyl)sulfonyl]-2-(1H-pyrrolo[2,3-b]pyridin-5-yloxy)benzamide]
6.99 | CC1(C)CCC(CN2CCN(c3ccc(C(=O)NS(=O)(=O)c4ccc(N[C@@H]5CCOC5)c([N+](=O)[O-])c4)c(Oc4cnc5[nH]ccc5c4)c3)CC2)=C(c2ccc(Cl)cc2)C1 [Example 238, 4-(4-{[2-(4-chlorophenyl)-4,4-dimethylcyclohex-1-en-1-yl]methyl}piperazin-1-yl)-N-({3-nitro-4-[(3R)-tetrahydrofuran-3-ylamino]phenyl}sulfonyl)-2-(1H-pyrrolo[2,3-b]pyridin-5-yloxy)benzamide]
7.63 | CC1(C)CCC(CN2CCN(c3ccc(C(=O)NS(=O)(=O)c4ccc(NCC5CCC(F)(F)CC5)c([N+](=O)[O-])c4)c(Oc4cnc5[nH]ccc5c4)c3)CC2)=C(c2ccc(Cl)cc2)C1 [Example 239, 4-(4-{[2-(4-chlorophenyl)-4,4-dimethylcyclohex-1-en-1-yl]methyl}piperazin-1-yl)-N-[(4-{[(4,4-difluorocyclohexyl)methyl]amino}-3-nitrophenyl)sulfonyl]-2-(1H-pyrrolo[2,3-b]pyridin-5-yloxy)benzamide]
7.76 | CC1(C)CCC(CN2CCN(c3ccc(C(=O)NS(=O)(=O)c4ccc(NC5CCN(C(C)(C)C)CC5)c(S(=O)(=O)C(F)(F)F)c4)c(Oc4cnc5[nH]ccc5c4)c3)CC2)=C(c2ccc(Cl)cc2)C1 [Example 240, N-({4-[(1-tert-butylpiperidin-4-yl)amino]-3-[(trifluoromethyl)sulfonyl]phenyl}sulfonyl)-4-(4-{[2-(4-chlorophenyl)-4,4-dimethylcyclohex-1-en-1-yl]methyl}piperazin-1-yl)-2-(1H-pyrrolo[2,3-b]pyridin-5-yloxy)benzamide]
6.94 | CC1(C)CCC(CN2CCN(c3ccc(C(=O)NS(=O)(=O)c4ccc(NCC5CN(C6COC6)CCO5)c(S(=O)(=O)C(F)(F)F)c4)c(Oc4cnc5[nH]ccc5c4)c3)CC2)=C(c2ccc(Cl)cc2)C1 (stereo not shown) [Example 241, 4-(4-{[2-(4-chlorophenyl)-4,4-dimethylcyclohex-1-en-1-yl]methyl}piperazin-1-yl)-N-({4-({[4-(oxetan-3-yl)morpholin-2-yl]methyl}amino)-3-[(trifluoromethyl)sulfonyl]phenyl}sulfonyl)-2-(1H-pyrrolo[2,3-b]pyridin-5-yloxy)benzamide]
6.65 | CC1(C)CCC(CN2CCN(c3ccc(C(=O)NS(=O)(=O)c4cnc(NCC5(F)CCOCC5)c(Cl)c4)c(Oc4cnc5[nH]ccc5c4)c3)CC2)=C(c2ccc(Cl)cc2)C1 [Example 242, N-[(5-chloro-6-{[(4-fluorotetrahydro-2H-pyran-4-yl)methyl]amino}pyridin-3-yl)sulfonyl]-4-(4-{[2-(4-chlorophenyl)-4,4-dimethylcyclohex-1-en-1-yl]methyl}piperazin-1-yl)-2-(1H-pyrrolo[2,3-b]pyridin-5-yloxy)benzamide]
7.00 | CC1(C)CCC(CN2CCN(c3ccc(C(=O)NS(=O)(=O)c4cnc(OCC5(F)CCOCC5)c(F)c4)c(Oc4cnc5[nH]ccc5c4)c3)CC2)=C(c2ccc(Cl)cc2)C1 [Example 248, 4-(4-{[2-(4-chlorophenyl)-4,4-dimethylcyclohex-1-en-1-yl]methyl}piperazin-1-yl)-N-({5-fluoro-6-[(4-fluorotetrahydro-2H-pyran-4-yl)methoxy]pyridin-3-yl}sulfonyl)-2-(1H-pyrrolo[2,3-b]pyridin-5-yloxy)benzamide]
